From patent US20080171737A1 (Wyeth, priority 2006, published 2008)

biological target: T1, human hNET (Homo sapiens, UniProt P23975); test: Functional norepinephrine reuptake assay, Procedure A (50,000 cells/well); assay type: cell-based; settings: MDCK-Net6 cells, 50,000 cells/well, 16 nM 3H-norepinephrine; read-out: Procecedure A NE Uptake IC50
T1 construct: expressed in transfected cells; host or cells: MDCK-Net6 (MDCK cells stably transfected with hNET)
Experimental: For screening, 25 μl aliquots of compound solution at a 1 μM or 10 μM final concentration was delivered directly to cells.
For IC50 determinations, stock compounds were prepared at 10 mM from powder. The stock solution was diluted according to compound testing range. Typically, the compound testing range was from 6 nM to 6 μM by half log dilutions. On the day of assay, 25 μl of compound solution at the specified concentrations were added to the plates containing cells. A DMSO stock of desipramine was prepared at 10 mM in DMSO and diluted for a final concentration of 20 μM to determine the non-specific reuptake.
MDCK-Net6 cells, stably transfected with human hNET (Pacholczyk, 1991), were maintained in growth media [high glucose DMEM (Gibco Cat. 11995), 10% FBS (dialyzed, heat-inactivated, Sigma, dialysed, heat inactivated, Lot# K0922 or equivalent) 1xPen/Strep, and 500 μg/ml G418 (Gibco Cat. 10131)]. Cells were plated at 300,000/T75 flask and cells split twice weekly.
Cells were plated at 50,000 cells/well (Procedure A) or 6,000 cells/well (Procedure B) on day 1 in BD Falcon Microtest 96-well sterile cell culture plates, Optilux White/Clear Bottom TC plate (VWR; # 62406-466 or equivalent) in growth media and maintained in a cell incubator (37° C., 5% CO2). On Day 2, cells were removed from the cell incubator and the growth media is replaced by 200 μl of assay buffer (25 mm HEPES 120 mM NaCL; 5 mM KCl; 2.5 mM CaCl2; 1.2 mM MgSO4; 2 mg/ml glucose (pH 7.4, 37° C.)) containing 0.2 mg/ml ascorbic acid and 1 μM parglyine. For screening, 25 μl of compound in 4% DMSO was added directly to each well and the plate was incubated for 5 minutes (37° C.). To initiate the norepinephrine reuptake, 16 nM (final concentration) of ^3H norepinephrine (specific activity; 40-80 Ci/mmol) in assay buffer was delivered in 25 μl aliquots to each well, and the plates were incubated for 5 min at 37° C. The reaction is aspirated from the plate and the cells washed with 250 μl of 50 mM Tris Buffer (4° C.). The plates were left to dry for 1 hour. The cells were lysed using 0.25 M NaOH solution then placed on a shake table and vigorously shaken for 10 minutes. After cell lysis, 100 μl of Microscint 20 (PerkinElmer; #87-051101) was added to the plates and the plates were sealed with film tape and replaced on the shake table for a minimum of 10 minutes. The plates were counted in a TopCount counter (PerkinElmer).
For screening single point determinations, each compound plate contained at least 3 control wells (maximum NE reuptake determinant) and 3 non-specific wells determined by adding 20 μM of desipramine (minimum NE reuptake determinant). Determination of active compounds was calculated using a Microsoft Excel spread sheet applying the following formula:
% inhibition=[1−((mean cpm test compound wells−mean cpm non-specific wells)/(mean cpm control wells−mean cpm non-specific wells))]×100
For IC50 determination, raw cpm values were generated in a data file from the TopCount counter. The data was organized using the Microsoft Excel and transferred into PRIZM graphing and statistical program, which calculated the estimated IC50 value. Calculation of IC50 values was made using non-linear regression analysis with a sigmoidal dose response with variable slope. The statistical program used wells containing ^3H norepinephrine only as the maximal NE reuptake determinant and wells containing ^3H norepinephrine plus 20 μM desipramine (AHR-9543) as the minimal NE reuptake determinant (non-specific determinant). Estimation of the IC50 value was completed on a log scale and the line was fit between the maximal and minimal NE reuptake values.

T1 sequence (P23975 whole entry): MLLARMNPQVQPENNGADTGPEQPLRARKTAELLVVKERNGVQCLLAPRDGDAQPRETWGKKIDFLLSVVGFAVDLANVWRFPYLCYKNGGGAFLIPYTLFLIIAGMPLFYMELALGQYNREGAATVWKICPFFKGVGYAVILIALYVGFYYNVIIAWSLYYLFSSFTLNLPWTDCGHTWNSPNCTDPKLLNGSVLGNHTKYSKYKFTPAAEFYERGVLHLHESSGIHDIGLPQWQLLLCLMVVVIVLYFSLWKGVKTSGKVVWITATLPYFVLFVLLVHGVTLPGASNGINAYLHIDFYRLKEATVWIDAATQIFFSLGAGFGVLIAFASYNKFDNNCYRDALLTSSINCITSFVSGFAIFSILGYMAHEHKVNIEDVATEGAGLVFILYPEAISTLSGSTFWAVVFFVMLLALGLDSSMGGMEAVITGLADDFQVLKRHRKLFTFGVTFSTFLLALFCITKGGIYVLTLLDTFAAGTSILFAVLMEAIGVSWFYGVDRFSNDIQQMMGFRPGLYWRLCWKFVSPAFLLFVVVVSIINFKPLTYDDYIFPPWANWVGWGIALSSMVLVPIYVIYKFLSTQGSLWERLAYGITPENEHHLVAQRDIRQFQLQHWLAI

Compared with `CNCCC[C@]1(C)Cc2ccccc2N(c2ccccc2)S1(=O)=O` (single isomer, unassigned) [Example 9], `CNCCCC1Cc2ccccc2N(c2ccccc2)S1(=O)=O` (centres unmarked) [Example 1, 3-(2,2-dioxido-1-phenyl-3,4-dihydro-1H-2,1-benzothiazin-3-yl)-N-methylpropan-1-amine] is 3.4-fold lower in IC50: 113 nM for the first, 33.5 nM for the second. The second is the more potent here.

Going from `NCCCC1Cc2ccccc2N(c2ccccc2)S1(=O)=O` (centres unmarked) [Example 2, 3-(2,2-dioxido-1-phenyl-3,4-dihydro-1H-2,1-benzothiazin-3-yl)propan-1-amine] to `CN(C)CCCC1Cc2ccccc2N(c2ccccc2)S1(=O)=O` (centres unmarked) [Example 3, 3-(2,2-dioxido-1-phenyl-3,4-dihydro-1H-2,1-benzothiazin-3-yl)-N,N dimethylpropan-1-amine], the IC50 rises from 233 nM to 484 nM (2.1-fold). The first is the more potent here.

First: CCNCCCC1Cc2ccccc2N(c2ccccc2)S1(=O)=O (centres unmarked) [Example 4, 3-(2,2-dioxido-1-phenyl-3,4-dihydro-1H-2,1-benzothiazin-3-yl)-N-ethylpropan-1-amine]
Second: CC(C)NCCCC1Cc2ccccc2N(c2ccccc2)S1(=O)=O (centres unmarked) [Example 5, 3-(2,2-dioxido-1-phenyl-3,4-dihydro-1H-2,1-benzothiazin-3-yl)-N-isopropyl propan-1-amine]
The IC50 of the first is 11-fold higher: 1880 nM for the first, 166 nM for the second.

Compared with `O=S1(=O)C(CCCN2CCCC2)Cc2ccccc2N1c1ccccc1` (centres unmarked) [Example 6, 1-phenyl-3-(3-pyrrolidin-1-ylpropyl)-3,4-dihydro-1H-2,1-benzothiazine 2,2-dioxide], `O=S1(=O)C(CCCNCc2ccccc2)Cc2ccccc2N1c1ccccc1` (centres unmarked) [Example 7, N-benzyl-3-(2,2-dioxido-1-phenyl-3,4-dihydro-1H-2,1-benzothiazin-3-yl)propan-1-amine] is 23-fold higher in IC50: 133 nM for the first, 3010 nM for the second. The first is the more potent here.

Work on `CNCCCC1Oc2ccccc2N(c2ccccc2)S1(=O)=O` (centres unmarked) [Example 12, 3-(2,2-dioxido-1-phenyl-1H-4,2,1-benzoxathiazin-3-yl)-N-methylpropan-1-amine] yielded an IC50 of 33.1 nM.

same assay, conditions: MDCK-Net6 cells, 50,000 cells/well; Conc 2000 nM

In the case of `O=S1(=O)C(CCCNC2CCCCC2)Cc2ccccc2N1c1ccccc1` (centres unmarked) [Example 8, N-[3-(2,2-dioxido-1-phenyl-3,4-dihydro-1H-2,1-benzothiazin-3-yl)propyl]cyclohexanamine], the “Procedure A [3H] NE Uptake Displacement %” value is reported as 17%.

biological target: T1, human hNET; test: Functional norepinephrine reuptake assay, Procedure B (6,000 cells/well); assay type: cell-based; settings: MDCK-Net6 cells, 6,000 cells/well, 16 nM 3H-norepinephrine; read-out: Procedure B hNET uptake IC50
Method in brief: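 MDCK cells stably expressing human NET, 6,000 cells/well, in HEPES-buffered saline pH 7.4 with ascorbic acid and 1 μM pargyline; compound preincubated 5 min at 37° C. ^3H norepinephrine uptake counted by scintillation; non-specific defined with 20 μM desipramine. IC50 from variable-slope sigmoidal nonlinear fit.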

Compared with `CNCCCC1Cc2ccccc2N(c2ccccc2)S1(=O)=O` (centres unmarked) [Example 1, 3-(2,2-dioxido-1-phenyl-3,4-dihydro-1H-2,1-benzothiazin-3-yl)-N-methylpropan-1-amine], `CNCCCC1Oc2ccccc2N(c2ccccc2)S1(=O)=O` (centres unmarked) [Example 12, 3-(2,2-dioxido-1-phenyl-1H-4,2,1-benzoxathiazin-3-yl)-N-methylpropan-1-amine] is 26-fold lower in IC50: 18.5 nM for the first, 0.7 nM for the second.

`CNCCCC1Cc2cc(Cl)ccc2N(c2ccccc2F)S1(=O)=O` (centres unmarked) [Example 175, 3-[6-chloro-1-(2-fluorophenyl)-2,2-dioxido-3,4-dihydro-1H-2,1-benzothiazin-3-yl]-N-methylpropan-1-amine] showed an IC50 of 42 nM.

same assay, conditions: MDCK-Net6 cells, 6,000 cells/well; Conc 6000 nM (6 μM); read-out: Procedure B hNET uptake (% inhibition)

`CNCC1Oc2ccccc2N(c2ccccc2)S1(=O)=O` (centres unmarked) [Example 144, 1-(2,2-dioxido-1-phenyl-1H-4,2,1-benzoxathiazin-3-yl)-N-methylmethanamine] gave an inhibition at 6 µM of 53%.
